# Results reported in article PMC7216583 (Parasites & Vectors, 2020).
# How the values were obtained:
# α7 nAChR = test system: α7 nAChR; set-up: method as in S-inhibitor catalog; settings: in α7*-expressing SH-EP1 cells; vendor brief description; ref S-inhibitor catalog; read-out: EC50, α7 nAChR positive allosteric modulation; cited from earlier work
# [1] = test system: Toxoplasma gondii RH-2F tachyzoites; test: microbe, parasite or virus in culture; settings: 72 h, read-out: Parasite inhibition (%) mean, preliminary screen of compound library, mean
# ALK2 = test system: ALK2; set-up: method as in S-inhibitor catalog; settings: vendor brief description; ref S-inhibitor catalog; cited from earlier work
# ALK3 = test system: ALK3; set-up: method as in S-inhibitor catalog; settings: vendor brief description; ref S-inhibitor catalog; cited from earlier work
# [2] = target: Aβ40 production (γ-secretase); set-up: method as in S-inhibitor catalog; settings: in human SH-SY5Y cells; vendor brief description; ref S-inhibitor catalog; read-out: IC50, reduction of Aβ40 production; cited from earlier work
# hERG K+ channel = settings: cited from earlier work
# PKA = target: PKA; set-up: method as in S-inhibitor catalog; settings: vendor brief description; ref S-inhibitor catalog; cited from earlier work
# FAAH = test system: FAAH; set-up: method as in S-inhibitor catalog; settings: vendor brief description; ref S-inhibitor catalog; cited from earlier work
# VEGFR2 = test system: VEGFR2; set-up: method as in S-inhibitor catalog; settings: vendor brief description; ref S-inhibitor catalog; cited from earlier work
# VEGFR3 = test system: VEGFR3; set-up: method as in S-inhibitor catalog; settings: vendor brief description; ref S-inhibitor catalog; cited from earlier work
# c-Kit = test system: c-Kit; set-up: method as in S-inhibitor catalog; settings: vendor brief description; ref S-inhibitor catalog; cited from earlier work
# PDGFRβ = test system: PDGFRβ; set-up: method as in S-inhibitor catalog; settings: vendor brief description; ref S-inhibitor catalog; cited from earlier work
# [3] = test system: AVP-induced platelet aggregation; set-up: method as in S-inhibitor catalog; settings: vendor brief description; ref S-inhibitor catalog; read-out: IC50, inhibition of AVP-induced platelet aggregation; cited from earlier work
# MDA-MB-435 cell line = test system: MDA-MB-435 cell line; set-up: method as in S-inhibitor catalog; settings: vendor brief description; ref S-inhibitor catalog; read-out: IC50, inhibition of growth of MDA-MB-435; cited from earlier work
# H14 cell line = test system: H14 cell line; set-up: method as in S-inhibitor catalog; settings: vendor brief description; ref S-inhibitor catalog; read-out: IC50, inhibition of growth of H14; cited from earlier work
# HL60 cell line = test system: HL60 cell line; set-up: method as in S-inhibitor catalog; settings: vendor brief description; ref S-inhibitor catalog; read-out: IC50, inhibition of growth of HL60; cited from earlier work
# HeLa cell line = test system: HeLa cell line; set-up: method as in S-inhibitor catalog; settings: vendor brief description; ref S-inhibitor catalog; read-out: IC50, inhibition of growth of HeLa; cited from earlier work
# VEGF-A = test system: VEGF-A; set-up: method as in S-inhibitor catalog; settings: vendor brief description; ref S-inhibitor catalog; cited from earlier work
# bFGF = test system: bFGF; set-up: method as in S-inhibitor catalog; settings: vendor brief description; ref S-inhibitor catalog; cited from earlier work
# DNA-PK = test system: DNA-PK; set-up: method as in S-inhibitor catalog; settings: vendor brief description; ref S-inhibitor catalog; cited from earlier work
# PI3K = test system: PI3K; set-up: method as in S-inhibitor catalog; settings: vendor brief description; ref S-inhibitor catalog; cited from earlier work
# GPR40 = test system: GPR40; set-up: method as in S-inhibitor catalog; settings: vendor brief description; ref S-inhibitor catalog; read-out: EC50, GPR40 agonist; cited from earlier work
# p110β = target: p110β; set-up: method as in S-inhibitor catalog; settings: vendor brief description; ref S-inhibitor catalog; cited from earlier work
# Plk1 = test system: Plk1; set-up: method as in S-inhibitor catalog; settings: vendor brief description; ref S-inhibitor catalog; cited from earlier work
smiles,measurement,setting,value
COc1cc(OC)c(NC(=O)Nc2cc(C)on2)cc1Cl [PNU-120596],EC50,α7 nAChR,216 nM
same,inhibition of growth at 5 µM,[1],-38.8%
c1ccc2c(-c3cnn4cc(-c5ccc(N6CCNCC6)cc5)cnc34)ccnc2c1 [LDN193189],IC50,ALK2,[…]
same,inhibition of growth at 5 µM,[1],21.7%
O=C(O)CC[C@H]1CC[C@@](c2cc(F)ccc2F)(S(=O)(=O)c2ccc(Cl)cc2)CC1 [MK-0752],IC50,[2],5 nM
same,inhibition of growth at 5 µM,[1],7.5%
CC1=NN(c2ccc(C)c(C)c2)C(=O)/C1=N/Nc1cccc(-c2cccc(C(=O)O)c2)c1O [Eltrombopag (SB-497115-GR)],IC50,hERG K+ channel,690 nM
same,inhibition of growth at 5 µM,[1],0.7%
Cc1n[nH]c2ccc(-c3cncc(OC[C@@H](N)Cc4ccccc4)c3)cc12 [A-674563],Ki,PKA,16 nM
same,inhibition of growth at 5 µM,[1],67.7%
NC(=O)c1cccc(-c2cccc(OC(=O)NC3CCCCC3)c2)c1 [URB597],IC50,FAAH,4.6 nM
same,inhibition of growth at 5 µM,[1],2.1%
CNC(=O)c1cc(COc2nnc(Nc3ccc(Cl)cc3)c3ccoc23)ccn1 [Telatinib (BAY 57-9352)],IC50,VEGFR2,6 nM
same,IC50,VEGFR3,4 nM
same,IC50,c-Kit,1 nM
same,IC50,PDGFRβ,15 nM
same,inhibition of growth at 5 µM,[1],-15.6%
Cc1ccccc1C(=O)Nc1ccc(C(=O)N2CCCC(O)c3cc(Cl)ccc32)c(C)c1 (stereo not shown) [Tolvaptan (OPC-41061)],IC50,[3],1280 nM
same,inhibition of growth at 5 µM,[1],-4.3%
C[C@@H]1CC[C@@]2(OC1)O[C@H]1C[C@H]3[C@@H]4CC=C5C[C@H](O[C@@H]6O[C@@H](CO)[C@@H](O[C@@H]7O[C@@H](C)[C@H](O)[C@@H](O)[C@@H]7O)[C@H](O)[C@H]6O[C@@H]6O[C@@H](C)[C@H](O)[C@@H](O)[C@H]6O)CC[C@]5(C)[C@@H]4CC[C@]3(C)[C@@H]1[C@H]2C [Dioscin (Collettiside III)],IC50,MDA-MB-435 cell line,2600 nM
same,IC50,H14 cell line,800 nM
same,IC50,HL60 cell line,7500 nM
same,IC50,HeLa cell line,4500 nM
same,inhibition of growth at 5 µM,[1],4.8%
COc1ccc(COc2cc3oc(=O)c4cc(C(C)O)ccc4c3cc2OC)cc1 (stereo not shown) [Palomid 529],IC50,VEGF-A,10 nM
same,IC50,bFGF,30 nM
same,inhibition of growth at 5 µM,[1],-14.6%
O=c1cc(N2CCOCC2)oc2c(-c3cccc4c3sc3ccccc34)cccc12 [NU7441 (KU-57788)],IC50,DNA-PK,14 nM
same,IC50,PI3K,5000 nM
same,inhibition of growth at 5 µM,[1],21.5%
Cc1cc(OCCCS(C)(=O)=O)cc(C)c1-c1cccc(COc2ccc3c(c2)OC[C@H]3CC(=O)O)c1 [TAK-875],EC50,GPR40,[…]
same,inhibition of growth at 5 µM,[1],-10.4%
COc1ncc(-c2ccc3nccc(-c4ccnnc4)c3c2)cc1NS(=O)(=O)c1ccc(F)cc1F [GSK2126458],Ki,p110β,[…]
same,inhibition of growth at 5 µM,[1],21.3%
CC[C@@H]1C(=O)N(C)c2cnc(Nc3ccc(C(=O)N[C@H]4CC[C@H](N5CCN(CC6CC6)CC5)CC4)cc3OC)nc2N1C(C)C [BI6727 (Volasertib)],IC50,Plk1,0.87 nM
same,inhibition of growth at 5 µM,[1],0.8%
